Drawing on US20250195464A1, “ALOTAKETAL COMPOUNDS AND DERIVATIVES THEREOF FOR USE AS ANTIVIRAL AGENTS” (priority 2022, published 2025), this text covers EC50 for one compound.

Read-outs that look alike come from different tables or passages of the source.

The experiment relates to SARS-CoV-2 Omicron. The experiment can be described thus: microbe, parasite or virus in culture. The class given is cell-based. As to conditions: Severe acute respiratory syndrome coronavirus 2, Calu-3.

`CC(=O)O[C@]1(C)C[C@@H](/C=C(\C)CCC=C(C)C)O[C@@]2(C=C(CO)[C@H]3CC(=O)C(C)=C[C@H]3O2)C1` [Alotaketal C]: the EC50 (usually the concentration giving half of the maximal effect) came to 140 nM (read-out: Nucleocapsid EC50, Omicron) and 1540 nM (read-out: dsRNA EC50, Omicron).
